# Measured values from US20260041693A1, “COMBINATION THERAPY OF CDK7 INHIBITORS WITH OTHER ANTI-CANCER THERAPIES” (QURIENT CO., LTD., priority 2022, published 2026).
# Key:
# RENCA cells = experiment: Cell viability assay (CellTiter-Glo); format: cell-based; details: Mus musculus, 72 hours, read-out: IC50 of RENCA cell growth/viability
# Protocol: RENCA renal adenocarcinoma were treated with various concentrations of compound 47 for 72 hours. Cell viability was measured using the CellTiter-Glo assay system (Promega). Luminescence units were normalized to those of untreated cells and are presented as the percentage of cell viability. IC50 was calculated using the dose-response curve generated by GraphPad Prism.
# CDK7 = biological target: T1, CDK7 (Mus musculus, UniProt Q03147); experiment: Target occupancy assay (Bio-compound 3 pull-down, anti-CDK7 blot); format: cell-based; details: RENCA cells treated 4 hours; lysate incubated with 1 μM Bio-compound 3
# T1 construct: endogenous in cells; host or cells: RENCA cells
# T1 sequence (Q03147 2-346 limits assumed): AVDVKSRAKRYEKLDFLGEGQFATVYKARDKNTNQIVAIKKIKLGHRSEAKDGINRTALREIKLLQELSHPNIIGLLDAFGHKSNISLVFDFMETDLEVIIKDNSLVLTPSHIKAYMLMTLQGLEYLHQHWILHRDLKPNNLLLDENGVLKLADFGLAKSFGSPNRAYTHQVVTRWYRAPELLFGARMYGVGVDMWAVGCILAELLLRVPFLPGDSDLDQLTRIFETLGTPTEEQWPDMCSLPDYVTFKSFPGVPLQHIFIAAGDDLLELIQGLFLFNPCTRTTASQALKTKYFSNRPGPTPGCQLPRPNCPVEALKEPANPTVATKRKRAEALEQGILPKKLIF
# T1 sequence (Q61458 1-323 partner): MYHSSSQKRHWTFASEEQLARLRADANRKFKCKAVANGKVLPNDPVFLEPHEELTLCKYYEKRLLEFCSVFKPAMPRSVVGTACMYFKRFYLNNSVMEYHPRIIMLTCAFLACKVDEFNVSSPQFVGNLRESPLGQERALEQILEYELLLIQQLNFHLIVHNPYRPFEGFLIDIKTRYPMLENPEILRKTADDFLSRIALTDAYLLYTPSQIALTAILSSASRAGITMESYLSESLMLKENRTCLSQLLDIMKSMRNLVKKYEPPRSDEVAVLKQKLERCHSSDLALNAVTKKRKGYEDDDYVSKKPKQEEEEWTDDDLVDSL
# T1 sequence (P51949 1-309 partner): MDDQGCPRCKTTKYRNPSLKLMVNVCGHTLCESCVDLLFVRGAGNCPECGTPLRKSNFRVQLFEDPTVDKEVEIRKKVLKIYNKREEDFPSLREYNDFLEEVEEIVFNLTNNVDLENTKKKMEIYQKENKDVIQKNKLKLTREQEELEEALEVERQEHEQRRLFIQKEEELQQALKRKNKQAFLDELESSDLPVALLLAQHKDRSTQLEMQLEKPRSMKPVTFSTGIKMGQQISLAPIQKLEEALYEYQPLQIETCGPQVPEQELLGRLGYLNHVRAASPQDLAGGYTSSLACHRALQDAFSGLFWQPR
# Protocol: RENCA cells were treated with various concentrations of compound 47 for 4 hours. Cells were washed with ice-cold PBS twice and then lysed with ice-cold lysis buffer (0.025M Tris, 0.15M NaCl, 0.001M EDTA, 1% NP-40, 5% glycerol, pH 7.4) with protease and phosphatase cocktails (Sigma-Aldrich). Lysed cells were centrifuged at 12,000 rpm at 4′C for 10 minutes and then the supernatant was collected. Protein concentrations were determined using a BCA protein quantification kit (Thermo Fisher Scientific, #23227). Equal amounts of protein were incubated with 1 μM of biotinylated compound 3 (Bio-compound 3; biotinylated analog of compound 47) at 4′C overnight and then immunoprecipitated with streptavidin-agarose bead. Pull-downed proteins were eluted, loaded to SDS-PAGE, transferred to a PVDF membrane (MilliporeSigma), and then treated with anti-CDK7 antibody. CDK7 protein was detected by HRP-conjugated secondary antibody. The image was obtained by ImageQuant™ LAS4000.
# [1] = system: phosphorylated form of H2AX (Ser139) in RENCA cells; experiment: Western blot analysis of phosphorylated H2AX; format: cell-based, mouse; details: 48 hours
# Protocol: RENCA cells were treated with various concentrations of compound 47 in 5% CO2 at 37′C for 48 hours. Cells were washed with ice-cold PBS twice and lysis buffer was added. Cells were collected and kept on the ice for 30 min. Lysed cells were centrifuged at 12,000 rpm at 4′C for 10 minutes, and then the supernatant was collected. Protein concentrations were quantified using a BCA protein Quantification kit. Equal amounts of protein were fractionated by SDS-PAGE, transferred to a PVDF membrane, and then treated with anti-phospho-H2AX (Ser139) antibody. The phosphorylated form of H2AX protein was detected by HRP-conjugated secondary antibody and the signal was obtained with Super Signal Western blot enhancer. The image was acquired by ImageQuant™ LAS 4000.
# RENCA tumor = experiment: RENCA syngeneic renal tumor mouse model; format: in vivo, BALB/c mice; details: compound 47 10 mg/kg i.p. every day; anti-PD-1 antibody 10 mg/kg i.p. twice a week; alone or both
# Protocol: RENCA cells (1×10^5) were subcutaneously implanted in the right flank of BALB/c mice. Tumor-bearing mice were randomized and then treated with compound 47 (10 mg/kg, intraperitoneally every day), anti-PD-1 antibody (10 mg/kg, intraperitoneally twice a week, clone: RMP1-14, Bio X Cell), or both compound 47 and anti-PD-1 antibody when the average tumor volume reached 31 mm^3 (N=7 or 8 per group). Control mice were treated with vehicle and rat IgG2a isotype control antibody (clone: 2A3, Bio X Cell). Tumor volume and body weight were measured twice per week.
# OVCAR3 tumor = experiment: OVCAR3 high-grade serous ovarian cancer cell line-derived xenograft model; format: in vivo, BALB/c nude mice; details: compound 47 3 mg/kg i.p. every day; olaparib 100 mg/kg orally every day; alone or both
# Protocol: (§1) OVCAR3 cells (1×10^7) mixed with matrigel (50:50) were subcutaneously implanted in the right flank of female BALB/c nude mice. Tumor-bearing mice were randomized and treated with compound 47 (3 mg/kg, intraperitoneally every day), olaparib (100 mg/kg, orally every day), or both compound 47 and olaparib when the average tumor volume reached 173 mm^3 (N=8 per group). Tumor volume and body weight were measured twice per week.
# DU145 tumor = experiment: DU145 castration-resistant prostate cancer cell line-derived xenograft model; format: in vivo, BALB/c nude mice; details: compound 47 3 mg/kg i.p. every day; docetaxel 15 mg/kg i.p. once a week; alone or both
# Protocol: DU145 cells (1×10^7) mixed with matrigel (50:50) were subcutaneously implanted in the right flank of male BALB/c nude mice. Tumor-bearing mice were randomized and then treated with compound 47 (3 mg/kg, intraperitoneally every day), docetaxel (15 mg/kg, intraperitoneally once a week), or both compound 47 and docetaxel when the average tumor volume reached 154 mm^3 (N=8 per group). Tumor volume and body weight were measured twice per week.
# MCF7 tumor = experiment: MCF7 human breast adenocarcinoma xenograft model; format: in vivo, BALB/c nude mice; details: compound 47 3 mg/kg i.p. every day; fulvestrant 2.5 mg/dose s.c. every day; alone or both
# Protocol: as §1, with “MCF7” for “OVCAR3”, “fulvestrant (2.5 mg/dose, subcutaneously” for “olaparib (100 mg/kg, orally”, “fulvestrant” for “olaparib”, “117” for “173”, “week. […] On day 28, tumor volume of the compound 47 with fulvestrant combination group was reduced compared to the compound 47 alone group or the fulvestrant treatment group.” for “week.”
# [2] = system: g-H2AX foci in OVCAR3 cells; experiment: g-H2AX foci imaging in OVCAR3 cells after cisplatin; format: cell-based, human; details: 100 nM cisplatin 24 hours, wash, then Compound 47, 24, 48 and 72 hours
# Protocol: OVCAR3 cells were treated with DMSO or 100 nM of cisplatin for 24 hours. Cells were then washed with culture media and treated with Compound 47 at various concentrations. Cells were collected 24, 48 and 72 hours after cisplatin wash and then stained with 4′,6-diamidino-2-phenylindole (DAPI) and anti-phospho-histone H2AX ([…]). g-H2AX foci inside the nucleus were identified by Alexa-568 staining. Fluorescence images of g-H2AX foci were captured using a confocal imaging system, CQ1 (×40 objective).
# [3] = system: g-H2AX or 53BP1 foci in PC3 cells; experiment: g-H2AX / 53BP1 foci imaging in PC3 cells after X-ray irradiation; format: cell-based, human; details: Compound 47 1 hour then X-ray 8, 4 or 2 Gy, 24 hours after irradiation
# Protocol: PC3 cells were treated with DMSO or various concentrations of Compound 47 for 1 hour. Cells were then irradiated with X-ray at set of 225 KV, 17.7 mA for 5 min using a Faxitron Specimen Radiography System (8 Gy, 4 Gy and 2 Gy irradiation, FIGS. 7A-7C, and 7D-7F, respectively). Cells were collected at 1-, 4-, 6-, 24- and 48-hour post X-ray irradiation and stained with HOECHST and anti-phospho-histone H2AX ([…]) or 53BP1. g-H2AX or 53BP1 foci inside the nucleus were identified with Alexa Flour488. Fluorescence images of the foci were obtained using Opera Phenix 3 High-content screening system (×40 objective) and the average granule number f SD of g-H2AX (FIG. 7A to 7C) or of 53BP1 (FIG. 7D to 7F) per cell was determined using MetaXpress software.
SMILES,TGI (OVCAR3 tumor) [%],TGI (DU145 tumor) [%],TGI (MCF7 tumor) [%],further results
C=C(F)C(=O)Nc1ccc2c(-c3ccccc3CNc3nc(NC[C@H]4CCNC[C@@H]4O)nc4c(C(C)C)cnn34)nccc2c1 [Compound 47],36,61,81,IC50 (RENCA cells): 20 nM; CDK7 occupancy (CDK7): in a dose dependent manner; phosphorylation of H2AX at Serine-139 [1]: induced phosphorylation of H2AX at the Serine-139 residue in a dose dependent manner; tumor growth inhibition (TGI) (RENCA tumor): 50.2%; percentage of g-H2AX-positive cells (g-H2AX foci) [2]: increased the percentage of g-H2AX foci in a time- and dose-dependent manner; DNA damage sustaining effect (granule number of g-H2AX or 53BP1 per cell) [3]: significant DNA damage sustaining effects
"C[C@]12CC[C@@H]3c4ccc(O)cc4C[C@@H](CCCCCCCCC[S+]([O-])CCCC(F)(F)C(F)(F)F)[C@H]3[C@@H]1CC[C@@H]2O (stereo partly drawn) [fulvestrant, reference compound]",–,–,81,–
"O=C(c1cc(Cc2n[nH]c(=O)c3ccccc23)ccc1F)N1CCN(C(=O)C2CC2)CC1 [olaparib, reference compound]",38,–,–,–
"CC(=O)O[C@@]12CO[C@@H]1C[C@H](O)[C@@]1(C)C(=O)[C@H](O)C3=C(C)[C@@H](OC(=O)[C@H](O)[C@@H](NC(=O)OC(C)(C)C)c4ccccc4)C[C@@](O)([C@@H](OC(=O)c4ccccc4)[C@H]21)C3(C)C [docetaxel, reference compound]",–,25,–,–
